Experimental findings from article PMC6385087, “New Multitarget Hybrids Bearing Tacrine and Phenylbenzothiazole Motifs as Potential Drug Candidates for Alzheimer’s Disease” (Molecules, 2019) are described below.

The test system of the assay is SH-SY5Y cells. The experiment in a line: Neuroprotection against ferrous sulfate/L-ascorbic acid toxicity, MTT reduction. The class given is cell-based, human. The conditions noted are these: Fe/Asc 500 μM/5 mM, 24 h after 1 h pre-treatment, compounds: 16 2.5 µM, 17 0.5 µM, 14 and 15 0.2 µM, 19 and 18 1 µM. The method, then:
The neuroprotective effect of TAC-PhBTA conjugates was evaluated using SH-SY5Y cells treated with Aβ1–42 peptides or ascorbate/iron. For each compound, a dose-response curve was performed to select a non-toxic concentration in order to analyze its neuroprotective effect (Figure 3).
SH-SY5Y human neuroblastoma cell line (ATCC-CRL-2266) grown in Dulbecco’s modified Eagle’s medium (DMEM) obtained from Gibco-Invitrogen (Life Technologies Ltd., Liverpool, UK) with 10% heat inactivated fetal calf serum, containing 50 U/mL penicillin, and 50 μg/mL streptomycin, under a humidified atmosphere of 95% air-5% CO2 at 37 °C. Cells were plated at 0.12 × 10^6 cells/mL for cell viability assay. The tested compounds (16, 17, 14, 15, 19 and 18) were dissolved in DMSO at a concentration of 25 mM and aliquots were stored at −20 °C. We performed a dose-response screening (from 0.2 μM to 5 μM) in order to choose the highest non-toxic concentration. […]
Cell viability was determined by a MTT (3-(4,5-dimethylthiazol-2-yl)-2,5-diphenyltetrazolium bromide) reduction test. […] The absorbance was measured at 570 nm. Cell reduction ability was expressed as a percentage of untreated control cells.
All data were expressed as mean ± S.E.M. of at least three independent experiments performed in duplicates. […]

For `COc1cc(-c2nc3ccccc3s2)ccc1OCC(=O)NCCCNc1c2c(nc3ccccc13)CCCC2` [compound 16, 2-(4-(Benzo[d]thiazol-2-yl)-2-methoxyphenoxy)-N-(3-((1,2,3,4-tetrahydroacridin-9-yl)amino)propyl)acetamide], the “Neuroprotective effect against Asc/Fe toxicity (cell viability, MTT)” value is “statistical significant neuroprotective effect”.
